Results as given in patent US20110301046A1, “Methods of Determining Efficacy of Glucocorticoid Treatment of Eosinophilic Esophagitis” (Children's Hospital Medical Center, priority 2008, published 2011).

How the values were obtained:
[1] = tested on: eotaxin-3 transcript in TE-7 cells; test: IL-13-induced eotaxin-3 transcript levels in TE-7 cells, real-time PCR; type: cell-based; details: IL-13 100 ng/ml, 24 h
Method: (§1) FIG. 4 depicts IL-13 induced transcript levels of two representative genes are reversed by FP treatment. TE-7 cells were treated as indicated with IL-13 (100 ng/ml) and/or the indicated dose of FP for 24 h. RNA was isolated and cDNA synthesis was performed. Transcript levels of eotaxin-3 (A) and serpinb4 (B) were determined by real-time PCR analysis and normalized to GAPDH levels. *, p<0.05; **, p<0.01.
(§2) IL-13 signaling in esophageal epithelial cells is known to have a role in EE pathogenesis by inducing the EE transcriptome. […] When TE-7 cells are treated with IL-13, an increase in eotaxin-3 and serpinb4 transcript levels is observed (FIG. 4A, B).

FKBP51 in TE-7 cells = test: FKBP51 induction in TE-7 esophageal cell line, western blot and real-time PCR; type: cell-based
Method: FIG. 3 depicts FKBP51 induction following glucocorticoid treatment. (A) Peripheral blood mononuclear cells (PBMCs) were isolated from a patient blood sample and cultured ex vivo. The cells were treated with the indicated concentration of FP for 24 h. RNA was isolated, cDNA synthesis was performed, and real-time PCR analysis was conducted. FKBP51 transcript levels were normalized to GAPDH levels. (B) Primary esophageal epithelial cells were cultured from the biopsy of an EE patient with active disease. Cells were treated or not with 10^−6 M FP for 24 h. Protein extracts were prepared and subjected to SDS-PAGE and western blot analysis for FKBP51 and actin (left). FKBP51 and actin levels were quantified by densitometry analysis. The ratio of FKBP51 to actin is shown (right). (C) TE-7 cells were treated with the indicated dose of FP for 24 h. Protein extracts were then prepared and subjected to SDS-PAGE and western blot analysis for FKBP51 and actin (top). Densitometry analysis was performed and the fold-change in the ratio of FKBP51 to actin expression is graphed (bottom). (D) TE-7 cells were treated for the indicated amount of time with 10^−7 M FP. RNA was isolated, cDNA synthesis was performed, and real-time PCR analysis to detect FKBP51 and GAPDH transcripts was done (left). In a separate experiment, protein extracts were prepared and then subjected to SDS-PAGE and western blot analysis for FKBP51 and actin (right, top). Following densitometry analysis, the fold-change in the ratio of FKBP51 to actin signal was graphed (right, bottom)*, p<0.05; **, p<0.01. To further study the role of FKBP51 in epithelial cells, the TE-7 esophageal cell line was used to understand the expression patterns of FKBP51 following FP treatment. […] The kinetics of FKBP51 Mrna and protein expression were examined following FP treatment. […] Similarly, FKBP51 protein levels in TE-7 cells increased in a time dependent manner, with maximum levels of protein observed by 24 h following treatment.

[2] = tested on: FKBP51 protein in primary esophageal epithelial cells; test: FKBP51 protein in primary esophageal epithelial cells from an EE patient, western blot; type: cell-based, human; details: 10^-6 M FP, 24 h, FKBP51 to actin ratio
Method: (§3) FIG. 3 depicts FKBP51 induction following glucocorticoid treatment. (A) Peripheral blood mononuclear cells (PBMCs) were isolated from a patient blood sample and cultured ex vivo. The cells were treated with the indicated concentration of FP for 24 h. RNA was isolated, cDNA synthesis was performed, and real-time PCR analysis was conducted. FKBP51 transcript levels were normalized to GAPDH levels. (B) Primary esophageal epithelial cells were cultured from the biopsy of an EE patient with active disease. Cells were treated or not with 10^−6 M FP for 24 h. Protein extracts were prepared and subjected to SDS-PAGE and western blot analysis for FKBP51 and actin (left). FKBP51 and actin levels were quantified by densitometry analysis. The ratio of FKBP51 to actin is shown (right). (C) TE-7 cells were treated with the indicated dose of FP for 24 h. Protein extracts were then prepared and subjected to SDS-PAGE and western blot analysis for FKBP51 and actin (top). Densitometry analysis was performed and the fold-change in the ratio of FKBP51 to actin expression is graphed (bottom). (D) TE-7 cells were treated for the indicated amount of time with 10^−7 M FP. RNA was isolated, cDNA synthesis was performed, and real-time PCR analysis to detect FKBP51 and GAPDH transcripts was done (left). […]

FKBP51 transcripts = test: Whole genome microarray analysis of esophageal biopsy samples from EE patients treated with swallowed FP; type: in vivo, human; details: esophageal biopsies
Description: FIG. 1 depicts the identification of glucocorticoid-regulated genes in EE patients that respond to FP treatment. (A) Analysis of microarray data to identify glucocorticoid-regulated transcripts. RNA from distinct patient populations was subjected to chip analysis using Affymetrix Human Genome U 133 Plus 2.0 GeneChips®. The groups are composed of the following numbers of patients: normal (NL), n=14; EE, n=14; EE, FP responders (EE R), n=13; EE, FP non-responders, n=8. Using the average expression for each patient group, the subset of genes differentially regulated between normal (NL) and EE patients was identified by t-test (p<0.01). The subset of genes differentially regulated between normal patients and EE patients that respond to FP (EE R) was then identified by 2-fold change filter. Subsequently, the subset of genes differentially regulated between NL and EE patients was subtracted from those differentially regulated between NL and EE R. These transcripts were then subjected to ANOVA, p<0.01. […] The average expression level for each patient group (normal, EE, Flovent® (fluticasone propionate) responders, Flovent® non-responders) is expressed as fold-change compared to the normal patients. […] The transcript levels for the indicated gene for each patient population was quantified by real-time PCR and normalized to glyceraldehyde-3-phosphate dehydrogenase (GAPDH) levels. […]

eotaxin-3 3' UTR = test: Eotaxin-3 3' UTR luciferase reporter in transfected TE-7 cells, dual luciferase assay; type: cell-based; details: IL-13 100 ng/ml and/or FP 10^-6 M, 24 h, FIG. 6B
Method: (§4) Cells were transfected with Phrl-TK and pEotaxin-3 (A) or pEotaxin-3 3′UTR (B) for 48 h. Cells were then treated with IL-13 (100 ng/ml) and/or FP (10^−6 M) for 24 h. Protein lysates were then collected, and firefly and Renilla luciferase activity for each sample was quantified by dual luciferase assay (Promega). Eotaxin-3 promoter activity is expressed as the ratio of firefly to Renilla luciferase activity. **, p<0.01.
(§5) The contribution of the promoter and 3′ UTR sequences of eotaxin-3 to the control of its gene expression following IL-13 and FP treatment, was tested using TE-7 cells transiently transfected with a luciferase reporter construct. The cells were transfected with a luciferase reporter construct containing either 800 bp of the eotaxin-3 promoter 5′ of the firefly luciferase gene in the Pg13-Basic vector or a plasmid containing 200 bp of the eotaxin-3 3′ UTR downstream of the firefly luciferase gene in the Pg13-Promoter vector (FIG. 5A). The same cells were co-transfected with a plasmid containing Renilla luciferase under a constitutive promoter (Phrl-TK) that served as a control for transfection efficiency. Part of the observed decrease in IL-13 induced eotaxin-3 Mrna levels following FP treatment can be mediated through modulation of the promoter activity due to the presence of a putative glucocorticoid-responsive element (GRE) in this region (FIG. 5A).

[3] = tested on: FKBP51 transcript in peripheral blood mononuclear cells; test: FKBP51 induction in PBMCs cultured ex vivo, real-time PCR; type: cell-based, human; details: all FP concentrations tested, 24 h, normalized to GAPDH
Method: as §3

[4] = tested on: FKBP51, KRT7, H19 transcripts; test: Real-time PCR analysis of glucocorticoid-regulated genes in patient esophageal biopsies; type: in vivo, human
Description: FIG. 2 depicts the verification of transcript levels of glucocorticoid-regulated genes by real-time PCR analysis. (A) Microarray data for three glucocorticoid-regulated genes. The average expression level for each patient group (normal, EE, Flovent® (fluticasone propionate) responders, Flovent® non-responders) is expressed as fold-change compared to the normal patients. (B) Real-time PCR analysis for three glucocorticoid-regulated genes. The transcript levels for the indicated gene for each patient population was quantified by real-time PCR and normalized to glyceraldehyde-3-phosphate dehydrogenase (GAPDH) levels. […] The expression pattern of three of the identified candidate genes was validated by real-time PCR analysis.

[5] = tested on: serpinb4 transcript in TE-7 cells; test: IL-13-induced serpinb4 transcript levels in TE-7 cells, real-time PCR; type: cell-based; details: IL-13 100 ng/ml, 24 h
Method: as §1, §2

eotaxin-3 promoter = test: Eotaxin-3 promoter luciferase reporter in transfected TE-7 cells, dual luciferase assay; type: cell-based
Method: FIG. 5 depicts increased baseline FKBP51 levels impact glucocorticoid repression of IL-13-induced eotaxin-3 promoter activity. (A) Schematics of constructs used in this study. GRE, glucocorticoid response element. CMV, cytomegalovirus promoter. (B) Cells were transfected with Phrl-TK, pEotaxin-3, and Pcdna3.1 or Pfkbp51. Cells were then treated with IL-13 ([…]) and/or FP (10^−6 M) for 24 h. Protein lysates were then collected, and firefly and Renilla luciferase activity for each sample were quantified by dual luciferase assay (Promega). Eotaxin-3 promoter activity is expressed as the ratio of firefly to Renilla luciferase activity. **, p<0.01; ***, p<0.001.
as §4, §5
To test whether increased FKBP51 levels impacted the FP-mediated decrease in IL-13-induced eotaxin-3 promoter activity, TE-7 cells were transfected with either empty vector (Pcdna3.1) or an expression construction that contained FKBP51 under the control of the CMV promoter (Pfkbp51, FIG. 5A) to simulate high baseline levels of FKBP51. […] However, when cells were transfected with the FKBP51 expression vector, the FP-mediated decrease in IL-13 induced eotaxin-3 promoter activity was abolished (FIG. 5B).

[6] = average, FIG. 2B, real-time PCR

Compound | IL-13 mediated increase in eotaxin-3 transcript levels on concomitant FP treatment ([1]; indicated doses of FP) | FKBP51 transcript levels in TE-7 cells over time (FKBP51 in TE-7 cells; 10^-7 M FP, real-time PCR) | time of maximum FKBP51 protein levels in TE-7 cells (FKBP51 in TE-7 cells; 10^-7 M FP, western blot) | FKBP51 protein levels in TE-7 cells in response to FP dose (FKBP51 in TE-7 cells; various doses of FP, 24 h, western blot) | increase in FKBP51 protein in primary esophageal epithelial cells [2] | increase in FKBP51 transcripts in FP-responders compared to control and active EE individuals (FKBP51 transcripts) | modulation of mRNA stability via eotaxin-3 3' UTR sequence (eotaxin-3 3' UTR) | FKBP51 transcript levels in isolated PBMCs [3] | FKBP51 levels in FP responders compared to normal patients [4, 6] | FKBP51 transcript levels in FP non-responder patients compared to normal patients [4, 6] | FKBP51, KRT7 and H19 transcript levels in FP responder patients compared to untreated patients ([4]; microarray and real-time PCR) | IL-13 mediated increase in serpinb4 transcript levels on concomitant FP treatment ([5]; indicated doses of FP) | FP-mediated decrease in IL-13 induced eotaxin-3 promoter activity in cells transfected with FKBP51 expression vector (eotaxin-3 promoter; FKBP51 expression vector, IL-13 10 ng/ml, FP 10^-6 M, 24 h, FIG. 5B) | reduction of FP-mediated inhibition of IL-13-induced eotaxin-3 expression by FKBP51 overexpression (eotaxin-3 promoter; FKBP51 overexpression in TE-7 cells) | IL-13-induced eotaxin-3 promoter activity upon concomitant FP treatment (eotaxin-3 promoter; IL-13 100 ng/ml, FP 10^-6 M, 24 h, FIG. 6A) | reduction of IL-13-induced eotaxin-3 promoter activity by concomitant FP (eotaxin-3 promoter; empty vector, IL-13 10 ng/ml, FP 10^-6 M, 24 h, FIG. 5B) | eotaxin-3 transcript levels on IL-13 treatment ([1]; TE-7 cells) | serpinb4 transcript levels on IL-13 treatment ([5]; TE-7 cells) | increase in eotaxin-3 promoter activity upon IL-13 treatment (eotaxin-3 promoter; empty vector, IL-13 10 ng/ml, 24 h, FIG. 5B)
CCC(=O)O[C@]1(C(=O)SCF)[C@H](C)C[C@H]2[C@@H]3C[C@H](F)C4=CC(=O)C=C[C@]4(C)[C@@]3(F)[C@@H](O)C[C@@]21C [FP, S-fluoromethyl-6α,9-difluoro-11β-hydroxy-16α-methyl-3-oxoandrosta-1,4-diene-17β-carbothioate, 17-propionate] | decreased in a dose-dependent manner | increased by 4 h post treatment and were further increased by 8 h, after which no further increase was observed | ≤ 24 h | dose-dependent increase | approximately 3 fold | 4 fold | did not show any modulation | significant increase | 4 fold | 1.5 fold | increased transcript levels | decreased in a dose-dependent manner | abolished | 50% | decrease | 50% | – | – | –
IL-13: cytokine used to induce eotaxin-3 and serpinb4 in TE-7 esophageal epithelial cells | – | – | – | – | – | – | did not show any modulation | – | – | – | – | – | – | – | – | – | increase | increase | 2 fold
